Source: ChEMBL document CHEMBL4257461, “Schizophrenia: synthetic strategies and recent advances in drug design” (Medchemcomm, 2018)
Blank lines part the entries; values can stand above or below the molecule they belong to.

Columns and labels:
[1] = Drug absorption in po dosed human; format: ADME, organism-based; settings: in vivo, read-out: Drug absorption
[2] = Half life in iv dosed human plasma; format: ADME, organism-based
[3] = Half life in po dosed human plasma; format: ADME, organism-based
[4] = Half life in im dosed human plasma; format: ADME, organism-based
[5] = Oral bioavailability in human; format: ADME, organism-based; settings: in vivo
[6] = Terminal half life in po dosed human; settings: in vivo
[7] = Drug excretion in po dosed human; settings: in vivo
[8] = Tmax in human at 9.75 mg, im administered as single dose; format: ADME, organism-based; settings: in vivo

half-life [6]: 6 h
dose excreted [7]: < 1%
Compound: OCCOCCN1CCN(C2=Nc3ccccc3Sc3ccccc32)CC1 [QUETIAPINE]

Tmax [8]: 3 h
Compound: O=C1CCc2ccc(OCCCCN3CCN(c4cccc(Cl)c4Cl)CC3)cc2N1 [ARIPIPRAZOLE]

The next lines start with the molecule.

Compound: O=C1[C@@H]2[C@H]3CC[C@H](C3)[C@@H]2C(=O)N1C[C@@H]1CCCC[C@H]1CN1CCN(c2nsc3ccccc23)CC1 [LURASIDONE]
Fa [1]: 9 to 19%

Compound: O=C(CCCN1CCC(O)(c2ccc(Cl)cc2)CC1)c1ccc(F)cc1 [HALOPERIDOL]
half-life [2]: 14 h
half-life [3]: 24 h
half-life [4]: 21 h

Compound: CN1CCN(C2=Nc3cc(Cl)ccc3Nc3ccccc32)CC1 [CLOZAPINE]
Fa [1]: 90 to 95%
bioavailability [5]: 50 to 60%
